± gives the expanded uncertainty stated by the source.
Assays:
[1] = xn = mol fraction of the nth substance listed; settings: Wilhelmy plate method
[2] = refractive index (Na D-line) (dimensionless); xn = mol fraction of the nth substance listed; settings: 100.5 kPa, Liquid, Standard Abbe refractometry

CCC(=O)OCc1ccccc1 [benzyl propanoate] + CCO
Settings	refractive index, 288.15 K	refractive index, 298.18 K	refractive index, 308.15 K	refractive index, 318.15 K	surface tension liquid-gas, 288.15 K [mN/m]	surface tension liquid-gas, 298.18 K [mN/m]	surface tension liquid-gas, 308.15 K [mN/m]	surface tension liquid-gas, 318.15 K [mN/m]
[1], x1 = 0.05	–	–	–	–	24 ± 0.4	23.2 ± 0.4	22.3 ± 0.4	21.34 ± 0.4
[1], x1 = 0.1	–	–	–	–	24.8 ± 0.4	24 ± 0.4	23.1 ± 0.4	22.1 ± 0.4
[1], x1 = 0.15	–	–	–	–	25.5 ± 0.4	24.64 ± 0.4	23.7 ± 0.4	22.7 ± 0.4
[1], x1 = 0.2	–	–	–	–	26.13 ± 0.4	25.25 ± 0.4	24.3 ± 0.4	23.3 ± 0.4
[1], x1 = 0.25	–	–	–	–	26.7 ± 0.4	25.78 ± 0.4	24.82 ± 0.4	23.8 ± 0.4
[1], x1 = 0.3	–	–	–	–	27.23 ± 0.4	26.3 ± 0.4	25.32 ± 0.4	24.3 ± 0.4
[1], x1 = 0.35	–	–	–	–	27.76 ± 0.4	26.8 ± 0.4	25.8 ± 0.4	24.78 ± 0.4
[1], x1 = 0.4	–	–	–	–	28.3 ± 0.4	27.31 ± 0.4	26.3 ± 0.4	25.28 ± 0.4
[1], x1 = 0.45	–	–	–	–	28.85 ± 0.4	27.84 ± 0.4	26.82 ± 0.4	25.78 ± 0.4
[1], x1 = 0.5	–	–	–	–	29.4 ± 0.4	28.36 ± 0.4	27.33 ± 0.4	26.28 ± 0.4
[1], x1 = 0.55	–	–	–	–	29.95 ± 0.4	28.89 ± 0.4	27.85 ± 0.4	26.78 ± 0.4
[1], x1 = 0.6	–	–	–	–	30.5 ± 0.4	29.43 ± 0.4	28.37 ± 0.4	27.28 ± 0.4
[1], x1 = 0.65	–	–	–	–	31.06 ± 0.41	29.97 ± 0.41	28.88 ± 0.4	27.78 ± 0.4
[1], x1 = 0.7	–	–	–	–	31.62 ± 0.41	30.52 ± 0.41	29.4 ± 0.41	28.3 ± 0.41
[1], x1 = 0.75	–	–	–	–	32.23 ± 0.41	31.1 ± 0.41	29.96 ± 0.41	28.83 ± 0.41
[1], x1 = 0.8	–	–	–	–	32.88 ± 0.41	31.7 ± 0.41	30.55 ± 0.41	29.4 ± 0.41
[1], x1 = 0.85	–	–	–	–	33.7 ± 0.41	32.5 ± 0.41	31.3 ± 0.41	30.1 ± 0.41
[1], x1 = 0.9	–	–	–	–	34.5 ± 0.41	33.3 ± 0.41	32.1 ± 0.41	30.9 ± 0.41
[1], x1 = 0.95	–	–	–	–	35.2 ± 0.41	34 ± 0.41	32.8 ± 0.41	31.6 ± 0.41
[1], x1 = 1	–	–	–	–	36 ± 0.41	34.8 ± 0.41	33.6 ± 0.41	32.4 ± 0.41
[2], x1 = 0.05	1.38108 ± 0.00031	1.37691 ± 0.00031	1.37266 ± 0.00031	1.36853 ± 0.00032	–	–	–	–
[2], x1 = 0.1	1.39613 ± 0.00031	1.39185 ± 0.00032	1.38756 ± 0.00032	1.38322 ± 0.00032	–	–	–	–
[2], x1 = 0.15	1.40891 ± 0.00032	1.40454 ± 0.00032	1.4002 ± 0.00032	1.39583 ± 0.00032	–	–	–	–
[2], x1 = 0.2	1.42001 ± 0.00032	1.41559 ± 0.00032	1.41123 ± 0.00032	1.40687 ± 0.00032	–	–	–	–
[2], x1 = 0.25	1.42966 ± 0.00032	1.42524 ± 0.00032	1.42091 ± 0.00032	1.41651 ± 0.00032	–	–	–	–
[2], x1 = 0.3	1.43817 ± 0.00032	1.43375 ± 0.00032	1.42944 ± 0.00032	1.425 ± 0.00032	–	–	–	–
[2], x1 = 0.35	1.44572 ± 0.00032	1.44128 ± 0.00032	1.43696 ± 0.00032	1.4325 ± 0.00032	–	–	–	–
[2], x1 = 0.4	1.45248 ± 0.00032	1.44801 ± 0.00032	1.4437 ± 0.00032	1.43922 ± 0.00032	–	–	–	–
[2], x1 = 0.45	1.45858 ± 0.00032	1.45408 ± 0.00032	1.44977 ± 0.00032	1.44524 ± 0.00032	–	–	–	–
[2], x1 = 0.5	1.46414 ± 0.00032	1.45962 ± 0.00033	1.4553 ± 0.00033	1.45072 ± 0.00033	–	–	–	–
[2], x1 = 0.55	1.46918 ± 0.00032	1.46464 ± 0.00032	1.46031 ± 0.00032	1.45569 ± 0.00033	–	–	–	–
[2], x1 = 0.6	1.47384 ± 0.00033	1.46929 ± 0.00033	1.46494 ± 0.00033	1.46029 ± 0.00033	–	–	–	–
[2], x1 = 0.65	1.47807 ± 0.00033	1.47352 ± 0.00033	1.46917 ± 0.00033	1.46451 ± 0.00033	–	–	–	–
[2], x1 = 0.7	1.48193 ± 0.00033	1.47737 ± 0.00033	1.47302 ± 0.00033	1.46833 ± 0.00033	–	–	–	–
[2], x1 = 0.75	1.48549 ± 0.00033	1.48092 ± 0.00033	1.47658 ± 0.00033	1.47188 ± 0.00033	–	–	–	–
[2], x1 = 0.8	1.48877 ± 0.00033	1.48419 ± 0.00033	1.47986 ± 0.00033	1.47516 ± 0.00033	–	–	–	–
[2], x1 = 0.85	1.49183 ± 0.00033	1.48725 ± 0.00033	1.48292 ± 0.00033	1.47824 ± 0.00033	–	–	–	–
[2], x1 = 0.9	1.49464 ± 0.00033	1.49006 ± 0.00033	1.48574 ± 0.00033	1.48106 ± 0.00033	–	–	–	–
[2], x1 = 0.95	1.49721 ± 0.00033	1.49265 ± 0.00033	1.48834 ± 0.00033	1.48366 ± 0.00033	–	–	–	–
[2], x1 = 1	1.4995 ± 0.00034	1.49498 ± 0.00034	1.49074 ± 0.00034	1.48611 ± 0.00034	–	–	–	–

Reference: the NIST ThermoML archive (doi:10.1021/je060139a)
